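Dose response: 5 concentrations. Exposure: 48 h. Format: 96-well plates. Endpoint: linear interpolation; highest concentration if not reached. Abbreviation: GI50, concentration required for 50% inhibition of growth.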 Activity calls are given as the source filed them. No stated cut-off is given here; in the data, active = GI50 up to about 1.1 µM and inactive = higher.
Columns and labels:
Assay in all cases: growth of human tumour cells (NCI), 48 h
786-0 = system: 786-0
A549 = system: A549
ACHN = system: ACHN
DU-145 = system: DU-145
HOP-92 = system: HOP-92
K562 = system: K562
LOX IMVI = system: LOX IMVI
MDA-MB-231 = system: MDA-MB-231
Malme-3M = system: Malme-3M
NCI-H23 = system: NCI-H23
NCI-H460 = system: NCI-H460
NCI-H522 = system: NCI-H522
SF-539 = system: SF-539
SK-MEL-2 = system: SK-MEL-2
SK-MEL-5 = system: SK-MEL-5
SK-OV-3 = system: SK-OV-3
SN12C = system: SN12C
SW-620 = system: SW-620
T47D = system: T47D
UO-31 = system: UO-31

Measured: GI50

Oc1cc(F)cc2cccnc12
inactive: 786-0 7.29 µM | DU-145 5.58 µM | MDA-MB-231 1.54 µM | NCI-H460 1.24 µM | SF-539 1.34 µM | SK-MEL-2 16.4 µM | SK-OV-3 4.45 µM | T47D 1.3 µM
active: A549 1.02 µM | ACHN 0.933 µM | HOP-92 0.0356 µM | K562 0.105 µM | LOX IMVI 0.362 µM | Malme-3M 0.628 µM | NCI-H23 1.09 µM | NCI-H522 0.183 µM | SK-MEL-5 0.998 µM | SN12C 1.04 µM | SW-620 0.855 µM | UO-31 0.652 µM

C=C1C(=O)O[C@H]2[C@H]3O[C@@H](C[C@@H]12)[C@](C)(O)CC[C@@H]1O[C@@]1(C)CCC[C@H]3C
inactive: 786-0 11.7 µM | A549 25.5 µM | ACHN 15.5 µM | DU-145 12.6 µM | HOP-92 16.4 µM | K562 23 µM | LOX IMVI 16 µM | MDA-MB-231 25.1 µM | Malme-3M 12 µM | NCI-H23 16.4 µM | NCI-H460 24.8 µM | NCI-H522 18.1 µM | SF-539 18.7 µM | SK-MEL-2 15.9 µM | SK-MEL-5 14.7 µM | SK-OV-3 29.4 µM | SN12C 20.3 µM | SW-620 19.2 µM | T47D 25.5 µM | UO-31 22.2 µM

CSc1[nH]nc(N)c1C(=O)Nc1ccc(C)cc1
inactive: 786-0 49.4 µM | A549 51.6 µM | ACHN 55.2 µM | DU-145 22.3 µM | HOP-92 19.5 µM | K562 69.5 µM | LOX IMVI 38.6 µM | MDA-MB-231 63.2 µM | Malme-3M 89.1 µM | NCI-H23 61.1 µM | NCI-H460 60.1 µM | NCI-H522 26.7 µM | SF-539 > 100 µM | SK-MEL-2 74.1 µM | SK-MEL-5 31 µM | SK-OV-3 > 100 µM | SN12C 96.4 µM | SW-620 48.1 µM | T47D 18.4 µM | UO-31 36.9 µM

O=C1CC(NC(=O)C(F)(F)F)c2c(Br)sc(N3CCNCC3)c21 (stereo not given)
inactive: 786-0 > 100 µM | A549 > 100 µM | ACHN > 100 µM | DU-145 > 100 µM | HOP-92 53 µM | K562 > 100 µM | LOX IMVI > 100 µM | MDA-MB-231 > 100 µM | Malme-3M > 100 µM | NCI-H23 > 100 µM | NCI-H460 > 100 µM | NCI-H522 > 100 µM | SF-539 > 100 µM | SK-MEL-2 13.2 µM | SK-MEL-5 > 100 µM | SK-OV-3 > 100 µM | SN12C > 100 µM | SW-620 > 100 µM | T47D > 100 µM | UO-31 61.4 µM

Cc1noc(NS(=O)(=O)c2ccc(NC(=O)c3ccc4[nH]c5ccccc5c(=O)c4c3)cc2)c1C
inactive: 786-0 46.2 µM | A549 > 100 µM | ACHN 53.8 µM | DU-145 > 100 µM | HOP-92 37.3 µM | K562 28.1 µM | LOX IMVI 22.8 µM | MDA-MB-231 45.9 µM | Malme-3M 27 µM | NCI-H23 93.3 µM | NCI-H460 87.9 µM | NCI-H522 26.4 µM | SF-539 20.6 µM | SK-MEL-2 32.1 µM | SK-MEL-5 44 µM | SK-OV-3 61.9 µM | SN12C > 100 µM | SW-620 > 100 µM | T47D 26.1 µM | UO-31 75 µM

Source: ChEMBL document CHEMBL1201862, “PubChem BioAssay data set” (2004)
